Data reported in ChEMBL document CHEMBL1201862, “PubChem BioAssay data set” (2004).
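Tested at 5 concentrations; 48 h exposure; 96-well plates; endpoints linearly interpolated, else capped at highest concentration. The concentration for 50% growth inhibition is given as GI50.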 The source made the active and inactive calls. Rule as the data show it: active = GI50 up to about 1.1 µM and inactive = higher.

Legend:
Assay in all cases: inhibition of tumour cell growth, NCI panel, 48 h
786-0 = system: 786-0
A498 = system: A498
A549 = system: A549
CCRF-CEM = system: CCRF-CEM
DU-145 = system: DU-145
HCT-15 = system: HCT-15
HT-29 = system: HT-29
Hs-578T = system: Hs-578T
MDA-N = system: MDA-N
MOLT-4 = system: MOLT-4
NCI-H226 = system: NCI-H226
NCI-H23 = system: NCI-H23
NCI-H522 = system: NCI-H522
RXF 393 = system: RXF 393
SN12C = system: SN12C
SNB-19 = system: SNB-19
SNB-75 = system: SNB-75
SW-620 = system: SW-620
UACC-62 = system: UACC-62
UO-31 = system: UO-31

SMILES	GI50 (786-0)	GI50 (A498)	GI50 (A549)	GI50 (CCRF-CEM)	GI50 (DU-145)	GI50 (HCT-15) [µM]	GI50 (HT-29)	GI50 (Hs-578T)	GI50 (MDA-N)	GI50 (MOLT-4)	GI50 (NCI-H226)	GI50 (NCI-H23)	GI50 (NCI-H522)	GI50 (RXF 393)	GI50 (SN12C)	GI50 (SNB-19)	GI50 (SNB-75)	GI50 (SW-620)	GI50 (UACC-62)	GI50 (UO-31)
CC1OC(O[C@H]2C3C=CO[C@@H](OC4OC(CO)C(O)C(O)C4O)C3[C@@]3(COC(=O)/C=C/c4ccccc4)O[C@@H]23)C(O)C(O)C1O (stereo not given in full)	> 100 µM (inactive)	> 100 µM (inactive)	> 100 µM (inactive)	> 100 µM (inactive)	> 100 µM (inactive)	> 100	> 100 µM (inactive)	> 100 µM (inactive)	> 100 µM (inactive)	> 100 µM (inactive)	> 100 µM (inactive)	> 100 µM (inactive)	> 100 µM (inactive)	> 100 µM (inactive)	> 100 µM (inactive)	> 100 µM (inactive)	> 100 µM (inactive)	> 100 µM (inactive)	> 100 µM (inactive)	> 100 µM (inactive)
CC(=O)O[C@@H]1CO[C@H]2O[C@H]3[C@@H](C(C=O)=C[C@H](O)[C@@H]4C5=C(C(C)C)CC[C@]5(C)CC[C@@]34C)[C@@]2(O)C1=O [STRIATIN E]	0.112 µM (active)	0.305 µM (active)	0.805 µM (active)	< 0.0271 µM (active)	0.716 µM (active)	0.2	0.0918 µM (active)	0.221 µM (active)	0.177 µM (active)	0.0906 µM (active)	0.378 µM (active)	0.209 µM (active)	0.0803 µM (active)	0.106 µM (active)	0.156 µM (active)	0.692 µM (active)	0.0736 µM (active)	0.0499 µM (active)	0.515 µM (active)	0.241 µM (active)
CC(C)(C)OC(=O)N1CC(COS(C)(=O)=O)c2ccc(O)cc21 (stereo not given)	2.59 µM (inactive)	2.18 µM (inactive)	3.12 µM (inactive)	0.455 µM (active)	0.507 µM (active)	2.46	3.21 µM (inactive)	2.46 µM (inactive)	2.08 µM (inactive)	0.443 µM (active)	1.92 µM (inactive)	1.14 µM (inactive)	1.05 µM (active)	0.288 µM (active)	2.25 µM (inactive)	2.7 µM (inactive)	1.46 µM (inactive)	2.1 µM (inactive)	1.73 µM (inactive)	1.97 µM (inactive)
c1cc(CSc2ncnc3[nH]cnc23)ccn1	39 µM (inactive)	> 100 µM (inactive)	> 100 µM (inactive)	66.8 µM (inactive)	65.3 µM (inactive)	> 100	48.3 µM (inactive)	> 100 µM (inactive)	42.9 µM (inactive)	34.7 µM (inactive)	> 100 µM (inactive)	> 100 µM (inactive)	42.2 µM (inactive)	> 100 µM (inactive)	> 100 µM (inactive)	> 100 µM (inactive)	> 100 µM (inactive)	> 100 µM (inactive)	37.4 µM (inactive)	57.8 µM (inactive)
CC(=O)[C@]1(C)[C@H](C)O[C@](C)(CO)[C@H]1O[Si](C)(C)c1ccccc1	81.5 µM (inactive)	> 100 µM (inactive)	56.6 µM (inactive)	28.4 µM (inactive)	57.1 µM (inactive)	23	78.7 µM (inactive)	45 µM (inactive)	54 µM (inactive)	34.6 µM (inactive)	67.9 µM (inactive)	20.5 µM (inactive)	23.2 µM (inactive)	14.1 µM (inactive)	51.6 µM (inactive)	> 100 µM (inactive)	> 100 µM (inactive)	73.6 µM (inactive)	97.9 µM (inactive)	28.8 µM (inactive)
C[n+]1c(-c2ccc(/C=N\NC(=O)c3ccc(C(=O)N/N=C/c4ccc(-c5cn6ccsc6[n+]5C)cc4)cc3)cc2)cn2ccsc21	16.6 µM (inactive)	17.3 µM (inactive)	24.5 µM (inactive)	25.4 µM (inactive)	18.5 µM (inactive)	16	15.8 µM (inactive)	19.9 µM (inactive)	32.8 µM (inactive)	15.2 µM (inactive)	16.9 µM (inactive)	17.8 µM (inactive)	31.1 µM (inactive)	22.8 µM (inactive)	19.4 µM (inactive)	24.6 µM (inactive)	23.3 µM (inactive)	18.5 µM (inactive)	20 µM (inactive)	15.2 µM (inactive)
COc1c(C)c2c(c(O)c1C/C=C(\C)CCC(=O)O)C(=O)OC2 [MYCOPHENOLIC ACID]	0.667 µM (active)	> 100 µM (inactive)	0.659 µM (active)	0.49 µM (active)	> 100 µM (inactive)	0.423	0.867 µM (active)	2.51 µM (inactive)	1.46 µM (inactive)	0.326 µM (active)	> 46.9 µM (inactive)	0.471 µM (active)	0.442 µM (active)	2.78 µM (inactive)	4.1 µM (inactive)	0.706 µM (active)	6.81 µM (inactive)	0.571 µM (active)	0.881 µM (active)	3.1 µM (inactive)
